In PubChem BioAssay (NCI) one finds GI50 and TGI data, which are given here for 8 compounds.

The structures appear in SMILES notation.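 Method: 48-hour compound exposure of cells in 96-well plates, five concentrations, linear interpolation of endpoints. At the GI50, growth is halved. TGI marks complete inhibition of growth.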

What all share (assay): NCI-60 cell line screen, 48 h
For assay [1], the system named is SR leukemia.
In assay [2] the test system is DU-145 prostate.
Assay [3] relates to M14 melanoma.
The test system of assay [4] is HOP-62 NSCLC.
Assay [5] concerns MCF7 breast.
Assay [6] deals with SK-MEL-28 melanoma.
Assay [7] has as its system BT-549 breast.
Assay [8] concerns K-562 leukemia.
The subject of assay [9] is SN12C renal.
The subject of assay [10] is EKVX NSCLC.

As to `O=C1/C(=C/c2ccc([N+](=O)[O-])o2)Oc2ccc(Cl)cc21`, the GI50 was 267 nM in assay [1]; 2.25 µM in assay [2]; 2010 nM in assay [3]; 4.53 µM in assay [4]; 1420 nM in assay [5]; 1710 nM in assay [6]. The GI50 in assay [7] is 1670 nM; in assay [8] it was 0.438 µM; in [9], 2.2 µM. Besides, the TGI in assay [1] worked out at 1260 nM; in [2], 4.88 µM; in [3], 4.93 µM; in assay [4] it was 23.9 µM; in [5], 3.92 µM; in [6] it was 3.38 µM. In addition, the TGI in assay [7] is 3.32 µM; in [8] it was 2.17 µM; in assay [9], 5.67 µM.

Turning to `CSc1ccc(C(=O)/C=C/c2ccc(Cl)cc2Cl)cc1`, the GI50 is 351 nM in assay [1]; 25.7 µM in assay [2]; 21600 nM in assay [3]; 19.6 µM in [4]; 3680 nM in assay [5]; 15700 nM in [7]. The GI50 in assay [10] was 20.2 µM; in assay [8], 6.48 µM; in assay [9], 42.9 µM. Also, the TGI came to 909 nM in assay [1]; 89.2 µM in assay [2]; 59.6 µM in assay [3]; 37.5 µM in [4]; 19.8 µM in assay [5]; 33.1 µM in assay [7]. The TGI in assay [10] was 78.8 µM; in assay [8], 49.5 µM; in assay [9], greater than 100 µM.

Take `Cc1cc(N(CCNc2ccnc3cc(Cl)ccc23)Cc2ccc3c(c2)OCO3)nc(N2CCCC2)n1`: the GI50 was 250 nM in [1]; 1830 nM in assay [3]; 1.86 µM in [4]; 1490 nM in assay [5]; 1680 nM in [6]; 1820 nM in assay [7]. The figures for the GI50 in [10], in [8] and in [9] were 2.74 µM, 0.7 µM and 1.5 µM, respectively. In addition, the TGI in [1] came out at 635 nM; in assay [3], 3.71 µM; in assay [4] it was 10.2 µM; in assay [5], 4.19 µM; in [6], 3.2 µM; in assay [7], 4.27 µM. Also, the TGI in [10] stood at 14.2 µM; in [8], 3.2 µM; in assay [9] it was 3.87 µM.

Take `CC12O[C@H](C[C@@H](OC(=O)CCC(=O)O)[C@H]1O)n1c3ccccc3c3c4c(c5c6ccccc6n2c5c31)C(=O)NC4=O`: the GI50 in assay [1] was 505 nM; in assay [3], 239 nM; in assay [4], 0.834 µM; in assay [5], 1250 nM; in [6], 1510 nM; in assay [7] it was 1020 nM. Further, the GI50 was 7.28 µM in assay [10], 5.07 µM in assay [8] and 2.47 µM in assay [9]. Also, the TGI in assay [1] worked out at 10500 nM; in assay [3], 6.54 µM; in assay [4] it was 10.7 µM; in assay [5], 10.9 µM; in [6], 19.8 µM; in assay [7] it was 7.68 µM. Besides, the TGI was greater than 50 µM in assay [10], greater than 50 µM in assay [8] and 24.5 µM in [9].

With `Cc1c(C(N)=O)sc2nc(C)n(/N=c3\scc(-c4ccccc4)n3Cc3ccccc3)c(=O)c12`, the GI50 in [1] was 5740 nM; in [2] it was 3.9 µM; in [3] it was 3880 nM; in assay [4] it was 2.82 µM; in [5], 2920 nM; in [6] it was 3560 nM. The GI50 in assay [7] was 2410 nM; in [8], 8.89 µM; in assay [9], 3.84 µM. Further, the TGI is greater than 100000 nM in assay [1]; greater than 100 µM in assay [2]; 84.5 µM in assay [3]; 9.47 µM in [4]; greater than 100 µM in [5]; greater than 100 µM in assay [6]. Also, the TGI in assay [7] was 8.89 µM; in [8], greater than 100 µM; in assay [9] it was greater than 100 µM.

On to `COc1cc(C(=O)O[C@H](C(=O)NCCCCNC(=O)[C@@H](OC(=O)c2cc(OC)cc3c(C)cccc23)[C@]2(C)CO2)[C@]2(C)CO2)c2cccc(C)c2c1`, for which the TGI was 0.352 µM in assay [2]; 0.591 µM in assay [3]; 0.892 µM in [4]; less than 0.0355 µM in [5]; 50 µM in [6]; 5.53 µM in assay [7]. Besides, the TGI in [10] amounted to 2.57 µM; in assay [8], 3.05 µM; in [9] it was 2.39 µM. The GI50 in assay [3] is 76.9 nM; in assay [5], less than 10 nM; in assay [6], 40.9 nM; in assay [7] it was 305 nM; in [10], 0.227 µM; in assay [9] it was 0.885 µM.

In the case of `N#Cc1c(N)nc(N2CCOCC2)c(C#N)c1-c1c(Cl)cccc1Cl`, the GI50 is 16.9 µM in [2]; 2470 nM in assay [3]; 3.52 µM in assay [4]; 2920 nM in assay [5]; 7380 nM in [6]; 7000 nM in assay [7]. Besides, the values for the GI50 in [10], in assay [8] and in assay [9] were 7.92 µM, 3.3 µM and 6.17 µM, respectively. The TGI in assay [2] was greater than 100 µM; in assay [3], 7.42 µM; in assay [4] it was 17.8 µM; in [5], 16.4 µM; in assay [6] it was 56 µM; in assay [7], 79.7 µM. The TGI in assay [10] is greater than 100 µM; in assay [8] it was 11.7 µM; in [9], 33.2 µM.

Consider `Cc1ccc(-c2nc3sc(C)cn3c2/C=C2\C(=O)Nc3ccc(Cl)cc32)cc1`, for which the GI50 in [1] was 10800 nM; in assay [3], 15500 nM; in assay [4], 7.21 µM; in [5], 7660 nM; in [6], 18000 nM; in assay [7] it was 15300 nM. The GI50 in assay [10] is 16 µM; in [8], 22.8 µM; in assay [9] it was 15 µM. Besides, the TGI turned out to be 36700 nM in assay [1]; 29.9 µM in assay [3]; 20.8 µM in [4]; 22.3 µM in [5]; 34.5 µM in assay [6]; 37.1 µM in assay [7]. Besides, the TGI in assay [10] was 39.3 µM; in assay [8] it was 84.1 µM; in [9] it was 29.8 µM.
